Tests used:
[1] = test system: mammary MATBIII tumor; assay: Dynamic contrast enhanced (DCE) MR tumor imaging; assay type: in vivo, SCID mice; settings: dose 0.2 mmol/kg Gd, Fe, mammary MBIII rodent tumor model
Procedure: Cell Preparation: MATBIII breast cells (available from ATCC®) were trypsinized using 1×trypsin-EDTA. The cells were washed using 1× phosphate buffered saline (PBS) and aliquots of 2×10^6 cells were made in 1×PBS (100 uL). Prior to injection into the subject, 50 μL of basement membrane matrix (Matrigel®, BD Biosciences) was added to each aliquot.
Tumor Induction: All procedures involving animals were completed under protocols approved by the GE Global Research Institutional Animal Care and Use Committee. Female, 5-7 weeks old, SCID mice (Charles River Laboratories) were briefly anesthetized with 2% isoflurane and injected with 1×10^6 MATBIII breast cancer cells in 1×PBS (100 μL) and Matrigel SC to their left flank. The animals were monitored for 7 days post tumor cell injections at which point, precontrast agent MR images of the resulting lesions, typically 1 cm in diameter, were collected using the sequences described below.

[2] = Hydrodynamic size assay (dynamic light scattering); assay type: physicochemical; settings: size printed beside agent name in Table 8
Procedure: The dilution was carried out to yield approximately 20,000 counts per second during the DLS measurement and the sample was allowed to equilibrate for 10 minutes in the instrument prior to data collection.

Agent size [2]: Magnevist - Gd (1 nm)
SMILES: CNC[C@H](O)[C@@H](O)[C@H](O)[C@H](O)CO.CNC[C@H](O)[C@@H](O)[C@H](O)[C@H](O)CO.O=C([O-])CN(CCN(CC(=O)[O-])CC(=O)O)CCN(CC(=O)[O-])CC(=O)O.[Gd+3] [Magnevist - Gd]
Tumor-to-muscle signal enhancement ratio, Tumor: Muscle, Average [1]: 3.6

— patent publication US20140088314A1, “BIFUNCTIONAL CHELATING AGENTS” (GENERAL ELECTRIC COMPANY, priority 2012, published 2014)
